Source: US20250074890A1, “CYANOPYRIDINE AND CYANOPYRIMIDINE BCL6 DEGRADERS” (DANA-FARBER CANCER INSTITUTE, INC., priority 2021, published 2025)
Structures can show the parent of a compound that is named as a salt.

Target: T1, BCL6 (Homo sapiens, UniProt P41182)
T1 construct: Endogenous BCL6 was tagged with the 11-amino acid SmBiT through CRISPR/Cas9 gene editing; endogenous in cells; host or cells: Su-DHL-4 (CRISPR/Cas9 knock-in, single cell clone)
Experiment: HiBiT cellular degradation assay in Su-DHL-4 cells
Assay type: cell-based
Settings: concentration to reach 50% degradation of endogenous SmBiT-tagged BCL6, 24 hours of compound treatment
Description: DC50 (concentration to reach 50% degradation) values were determined from a cellular degradation assay (HiBiT, Promega™) in Su-DHL-4 cells (Table 1). Endogenous BCL6 was tagged with the 11-amino acid SmBiT through CRISPR/Cas9 gene editing and single cell clone selection. After 24 hours of compound treatment, cells were lysed and incubated with LgBiT protein to reconstitute intact nanoluciferase. Substrate was then added and relative luciferase units were measured. Degradation levels for each treatment were taken as a percentage compared to the control, 100% DMSO (Prism).

Row | Compound | DC50 [nM]
1 | C[C@H](O)CCn1c(=O)n(C)c2ccc(Nc3nc(N4C[C@@H](C)[C@@H](F)[C@@H](C)C4)c(C#N)cc3F)cc21 [Compound 54, 5-Fluoro-2-((3S,4R,5R)-4-fluoro-3,5-dimethylpiperidin-1-yl)-6-((3-((S)-3-hydroxybutyl)-1-methyl-2-oxo-2,3-dihydro-1H-benzo[d]imidazol-5-yl)amino)nicotinonitrile] | 38
2 | C[C@H]1CN(c2nc(Nc3ccc4c(c3)n(C[C@@H]3COC(=O)N3)c(=O)n4C)c(F)cc2C#N)C[C@@H](N)C1(F)F [Compound 60, 2-[(3R,5S)-3-Amino-4,4-difluoro-5-methyl-1-piperidyl]-5-fluoro-6-[[1-methyl-2-oxo-3-[[(R)-2-oxooxazolidin-4-yl]methyl]benzimidazol-5-yl]amino]pyridine-3-carbonitrile] | > 400
3 | C[C@H]1CN(c2nc(Nc3ccc4c(c3)n(CCC(C)(C)O)c(=O)n4C)c(Cl)cc2C#N)C[C@@H](O)C1(F)F [Compound 75, 5-chloro-2-((3R,5S)-4,4-difluoro-3-hydroxy-5-methylpiperidin-1-yl)-6-((3-(3-hydroxy-3-methylbutyl)-1-methyl-2-oxo-2,3-dihydro-1H-benzo[d]imidazol-5-yl)amino)nicotinonitrile] | > 400
4 | C[C@H]1CN(c2nc(Nc3ccc4c(c3)n(CCC(C)(C)O)c(=O)n4C)c(F)cc2C#N)C[C@@H](O)[C@H]1F [Compound 53, 5-Fluoro-2-((3R,4S,5S)-4-fluoro-3-hydroxy-5-methylpiperidin-1-yl)-6-((3-(3-hydroxy-3-methylbutyl)-1-methyl-2-oxo-2,3-dihydro-1H-benzo[d]imidazol-5-yl)amino)nicotinonitrile] | > 400
5 | CNC(=O)COc1cc2cc(Nc3nc(N4C[C@@H](C)C(F)(F)[C@@H](C)C4)c(C#N)cc3Cl)ccc2n(CC2CNC2)c1=O [Compound 65, 2-((1-(Azetidin-3-ylmethyl)-6-((3-chloro-5-cyano-6-((3R,5S)-4,4-difluoro-3,5-dimethylpiperidin-1-yl)pyridin-2-yl)amino)-2-oxo-1,2-dihydroquinolin-3-yl)oxy)-N-methylacetamide] | 56
6 | C[C@@H]1CN(c2nc(Nc3ccc4c(c3)n(CCC(C)(C)O)c(=O)n4C)c(Cl)cc2C#N)C[C@H](O)C1(F)F [Compound 74, 5-chloro-2-((3S,5R)-4,4-difluoro-3-hydroxy-5-methylpiperidin-1-yl)-6-((3-(3-hydroxy-3-methylbutyl)-1-methyl-2-oxo-2,3-dihydro-1H-benzo[d]imidazol-5-yl)amino)nicotinonitrile] | 22
7 | C[C@@H]1CN(c2nc(Nc3ccc4c(c3)n(CCC(C)(C)O)c(=O)n4C)c(Cl)cc2C#N)C[C@H](O)[C@@H]1F [Compound 50, 5-chloro-2-((3S,4R,5R)-4-fluoro-3-hydroxy-5-methylpiperidin-1-yl)-6-((3-(3-hydroxy-3-methylbutyl)-1-methyl-2-oxo-2,3-dihydro-1H-benzo[d]imidazol-5-yl)amino)nicotinonitrile] | 28
8 | C[C@@H]1CN(c2nc(Nc3ccc4c(c3)n(CCC(C)(C)O)c(=O)n4C)c(F)cc2C#N)C[C@H](O)[C@@H]1F [Compound 52, 5-Fluoro-2-((3S,4R,5R)-4-fluoro-3-hydroxy-5-methylpiperidin-1-yl)-6-((3-(3-hydroxy-3-methylbutyl)-1-methyl-2-oxo-2,3-dihydro-1H-benzo[d]imidazol-5-yl)amino)nicotinonitrile] | 17
9 | C[C@@H]1CN(c2nc(Nc3ccc4c(c3)n(CCC(C)(C)O)c(=O)n4C)c(F)cc2C#N)C[C@H](N)C1(F)F [Compound 80, 2-((3S,5R)-3-Amino-4,4-difluoro-5-methylpiperidin-1-yl)-5-fluoro-6-((3-(3-hydroxy-3-methylbutyl)-1-methyl-2-oxo-2,3-dihydro-1H-benzo[d]imidazol-5-yl)amino)nicotinonitrile hydrochloride] | > 400
10 | C[C@@H]1C[C@H](N)CN(c2nc(Nc3ccc4c(c3)n(CCC(C)(C)O)c(=O)n4C)c(Cl)cc2C#N)C1 [Compound 36, 2-((3S,5R)-3-amino-5-methylpiperidin-1-yl)-5-chloro-6-((3-(3-hydroxy-3-methylbutyl)-1-methyl-2-oxo-2,3-dihydro-1H-benzo[d]imidazol-5-yl)amino)nicotinonitrile] | > 400
11 | C[C@@H]1CN(c2nc(Nc3ccc4c(c3)n(CC[C@@H](C)O)c(=O)n4C)c(F)cc2C#N)C[C@H](C)[C@@H]1F [Compound 55, 5-Fluoro-2-((3S,4S,5R)-4-fluoro-3,5-dimethylpiperidin-1-yl)-6-((3-((R)-3-hydroxybutyl)-1-methyl-2-oxo-2,3-dihydro-1H-benzo[d]imidazol-5-yl)amino)nicotinonitrile] | 33
12 | C[C@@H]1CN(c2nc(Nc3ccc4c(c3)cc(OC[C@H]3CNCCO3)c(=O)n4C)c(Cl)cc2C#N)C[C@H](C)[C@@H]1F [Compound 71, 5-Chloro-2-((3S,4S,5R)-4-fluoro-3,5-dimethylpiperidin-1-yl)-6-((1-methyl-3-((R)-morpholin-2-ylmethoxy)-2-oxo-1,2-dihydroquinolin-6-yl)amino)nicotinonitrile] | > 400
13 | CNC(=O)COc1cc2cc(Nc3nc(N4C[C@@H](C)[C@@H](O)[C@@H](C)C4)c(C#N)cc3Cl)ccc2n(C)c1=O [Compound 46, 2-((6-((3-Chloro-5-cyano-6-((3R,4s,5S)-4-hydroxy-3,5-dimethylpiperidin-1-yl)pyridin-2-yl)amino)-1-methyl-2-oxo-1,2-dihydroquinolin-3-yl)oxy)-N-methylacetamide] | 6
14 | C[C@H]1CN(c2nc(Nc3ccc4c(c3)n(C[C@@H]3CNC(=O)O3)c(=O)n4C)c(F)cc2C#N)C[C@@H](N)C1(F)F [Compound 85, 2-[(3R,5S)-3-amino-4,4-difluoro-5-methyl-1-piperidyl]-5-fluoro-6-[[1-methyl-2-oxo-3-[[(5S)-2-oxooxazolidin-5-yl]methyl]benzimidazol-5-yl]amino]pyridine-3-carbonitrile] | > 400
15 | C[C@H]1CN(c2nc(Nc3ccc4c(c3)n(CCC(C)(C)O)c(=O)n4CC3COC3)c(Cl)cc2C#N)C[C@@H](N)C1(F)F [Compound 38, 2-((3R,5S)-3-Amino-4,4-difluoro-5-methylpiperidin-1-yl)-5-chloro-6-((3-(3-hydroxy-3-methylbutyl)-1-(oxetan-3-ylmethyl)-2-oxo-2,3-dihydro-1H-benzo[d]imidazol-5-yl)amino)nicotinonitrile] | > 400
16 | CC(O)CCn1c(=O)n(C)c2ccc(Nc3nc(N4C[C@@H](CCO)[C@H](F)[C@@H](C)C4)c(C#N)cc3F)cc21 (stereo partly drawn) [Compound 56, 5-fluoro-2-[(3R,4R,5S)-4-fluoro-3-(2-hydroxyethyl)-5-methyl-1-piperidyl]-6-[[3-(3-hydroxybutyl)-1-methyl-2-oxo-benzimidazol-5-yl]amino]pyridine-3-carbonitrile] | > 400
17 | C[C@@H]1C[C@H](N)CN(c2nc(Nc3ccc4c(c3)c3c(c(=O)n4C)OCC(F)(F)[C@H](C4CC4)N3)c(Cl)cc2C#N)C1 [Compound 25, 2-((3S,5R)-3-Amino-5-methylpiperidin-1-yl)-5-chloro-6-(((S)-2-cyclopropyl-3,3-difluoro-7-methyl-6-oxo-1,2,3,4,6,7-hexahydro-[1,4]oxazepino[2,3-c]quinolin-10-yl)amino)nicotinonitrile] | > 400
